Measurements published in patent publication US11780815B2, “DNA2 inhibitors for cancer treatment” (City of Hope, priority 2016, dated 2023).
Read-outs that look alike come from different tables or passages of the source. One block for each molecule: values may come before it.

Tests used:
[1] = system: drug-sensitive yeast strains (rad27 mutants, wild-type); assay: Yeast dilution assay, survival after MMS or high temperature; conditions: rad27 mutants lacking FEN1, serial 10 fold dilutions
MCF7 breast cancer cells = assay: Clonogenic assay, combination with CPT or MK4827; format: cell-based, human; conditions: for IC50: Homo sapiens, MCF7
Experimental: The survival rate of the cells treated with various concentrations of CPT was calculated by normalizing the number of colonies to that of the cells without CPT treatment. The survival rate of the cells without CPT treatment was arbitrarily set as 1. […] The IC50 and combination index (CI) was calculated using the Compusyn program. FIG. 7B: Representative inhibition curve of varying concentrations of C5 from 0 to 10 μM in combination with MK4827 (0 or 1 μM).
To test our hypothesis that inhibition of DNA2 synergizes with other chemotherapeutic agents, we treated cells with CPT and C5.

MCF7 cells = assay: Cell survival of control (shSCR) or DNA2 knockdown MCF7 cells; format: cell-based, human; conditions: 1 μM C5 for 4 days
Text: . […] The live cells were counted.

[2] = system: phosphorylated RPA2 and γH2AX in MCF7 and A549 cells; assay: Phosphorylated RPA and γH2AX after CPT (western blot, immunofluorescence)
[3] = system: U2OS cells carrying the GFP reporter gene; assay: DSB repair reporter assays (I-SceI/GFP, HDR and SSA); format: cell-based, human
Text: To further validate C5 as a DNA2 inhibitor, we tested its effects on DNA2 functions known to be affected by knockdown or deletion of DNA2 in previous studies (Howard et al., 2015; Karanja et al., 2014; Karanja et al., 2012; Peng et al., 2012). We first determined the effect of C5 on two recombination pathways, SSA (single-strand annealing) and homologous recombination (HR), using I-SceI/GFP-based reporter assays. […] . HDR-GFP and SSA-GFP were integrated in U2OS cells (Gunn and Stark, 2012; Howard et al., 2015). […] . The cells were harvested and the GFP+ frequencies (repair frequencies) were determined by flow cytometry using a CyAn ADP Analyzer (Beckman Coulter, Inc.).

FEN1 = FEN1 (Homo sapiens, UniProt P39748); conditions: Liu et al EBioMedicine 6 (2016) 73-86; cited from earlier work
FANCD2−/− fibroblasts = assay: Cisplatin sensitivity of FANCD2−/− cells; conditions: 125 nM cisplatin, 10 μM C5, compared to cells not treated with C5
[4] = system: BRCA2- or BOD1L-depleted or mock transfected U2OS cells; assay: P-RPA foci in fork protection defective cells after HU; format: cell-based, human
Text: Fork protection is a DNA break repair-independent pathway suppressing genomic instability (Schlacher et al, 2011; Schlacher et al, 2012). The fork protection pathway is mediated by BRCA2, BRCA1, RAD51, members of the Fanconi anemia pathway, and […]. In the absence of any of these factors, excessive nascent DNA degradation occurs at stalled replication forks. This degradation is prevented if the end-resection protein MRE11 is inhibited either by siRNA knockdown or by inhibition of MRE11 nuclease by the small molecule mirin (Schlacher et al., 2011; Schlacher et al., 2012). MRE11 functions upstream of DNA2 in resection of double-strand breaks, and DNA2, in addition to MRE11 has been implicated in over-resection at stalled replication forks in BOD1L and in RAD51 impaired cells, since over-resection is suppressed by knockdown of DNA2 in the absence of BOD1L or in a RAD51 mutant cell line (Higgs et al., 2015; Wang et al., 2015). […] . After treatment of the BRCA2- or BOD1L-depleted U2OS cells with HU, which stalls forks but is not expected to produce DSBs (Petermann et al., 2010; Schlacher et al., 2011; Schlacher et al., 2012), and which are fork protection defective, we observed a dramatic increase in P-RPA positive cells indicative of nascent DNA degradation upon treatment with HU (FIGS. 6C and FIG. 12B). […] . The potency of C5 was estimated by comparing the effect of mirin, the MRE11 inhibitor, in the same experiment. […] . Our results are in keeping with previous work showing that knockdown of DNA2 counteracts excessive nascent strand degradation in both BOD1L and in RAD51 impaired cells (Higgs et al., 2015; Wang et al., 2015). […] .

A549 cells = assay: DNA fiber assay, replication fork restart; conditions: for percentage of restarting forks: 20 μM C5
[5] = system: HCT116 DNA2 flox/+/+ cells; assay: Synthetic lethality of C5 with FEN1, EXO1 or MRE11 siRNA knockdown; format: cell-based, human
Experimental: FIGS. 13A-13C. Synergy between C5 and FEN1. […] . On day 1, HCT116 DNA2^flox/+/+ and HCT116 DNA2^flox/−/− cells (3*10^6 were plated in 10 cm dishes, respectively. On day 2, the genetic knockout of DNA2 was induced with tamoxifen as previously described (Karanja et al., 2014). Control wells contained EtOH. On day 3, the tamoxifen floxed cells, now DNA2^−/+/+ and DNA2^−/−/−, and DNA2^flox/+/+ controls were plated on 24 well plates, 20,000 to 30,000 cells per well, and incubated overnight. On day 4, wells were transfected with 20 pmole control SCR siRNA or FEN1 (FIG. 13A), EXO1 (FIG. 13B), or MRE11 (FIG. 13C) si RNAs, respectively, as previously described using GeneMute. siRNAs were obtained from Invitrogen: FEN1 (HSS103627, HSS103629, HSS176903), MRE11 (HSS142960, HSS142961, HSS181171), EXO1 (HSS113557, HSS113558, HSS113559). Cells were incubated overnight. […] . Cells were cultured for an additional 3 days, until DNA2 ^flox/+/+ cells lacking C5 were confluent. As a control for the efficacy of C5, the effect of genetic knockdown of DNA2 was tested in the presence the respective siRNA treated DNA2^−/−/− (gray curves). Cells were then washed with PBS, trypsinized and stained with tryphan blue to differentiate live cells from dead cells. Cells were counted microscopically in a Neubauer chamber. Error bars represent data from duplicate experiments. […] .
In yeast, pathways mediated by DNA2 overlap with repair or replication by FEN1, EXO1, or MRE11 and not with others (Budd, M. E., Tong, A. H., Polaczek, P., Peng, X., Boone, C., and Campbell, J. L. (2005). A network of multi-tasking proteins at the DNA replication fork preserves genome stability. PLoS genetics 1, e61). Thus, mutants defective in FEN1, EXO1, or MRE11 are viable only in the presence of active DNA2. Double mutants deficient in DNA2 and FEN1, EXO1, or MRE11, respectively, are inviable, especially in the presence of DNA damage. This effect is called synthetic lethality. To test for synthetic lethality, deficiency in DNA2, can be induced either by genetic mutation or, if a specific inhibitor is available, by inhibition of DNA2. We reasoned that if DNA2 is the major cellular target of C5, then cells deficient in FEN1, EXO1, or MRE11 should be hypersensitive to C5, i.e. C5 should synergize with deficiency in any one of these three genes. We have now shown that this is the case in both yeast and in human cells (FIGS. 13A-13C, human cells and FIG. 14, yeast cells). […] . […] After floxing, i.e. induction of Cre nuclease with tamoxifen, this strain becomes a complete DNA2 knockout. […] .

[6] = system: mouse embryonic stem (MES) cells; assay: Cell survival of WT and DNA2 knockout MES cells; format: cell-based; conditions: 1 μM C5 for 4 days
[7] = system: panel of 18 cell lines of 4 major types of cancers; assay: Cell proliferation assay, panel of cancer cell lines

Chain of FEN1 (P39748 whole entry, species assumed): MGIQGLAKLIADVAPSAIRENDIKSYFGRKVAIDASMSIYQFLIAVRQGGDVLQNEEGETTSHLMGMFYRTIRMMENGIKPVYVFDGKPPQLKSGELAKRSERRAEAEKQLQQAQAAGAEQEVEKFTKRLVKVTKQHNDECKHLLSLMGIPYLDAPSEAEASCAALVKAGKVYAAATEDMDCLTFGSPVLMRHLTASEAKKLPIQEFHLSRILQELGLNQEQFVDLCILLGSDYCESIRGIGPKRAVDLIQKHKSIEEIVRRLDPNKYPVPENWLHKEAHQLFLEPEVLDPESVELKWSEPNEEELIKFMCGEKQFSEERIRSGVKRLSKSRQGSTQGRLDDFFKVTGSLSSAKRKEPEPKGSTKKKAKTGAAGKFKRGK

SMILES: CCCCNC(=O)c1c[nH]c2c([N+](=O)[O-])cccc2c1=O [C5-2]
sensitisation of rad27 yeast to DNA damage [1]: more effective than C5

IC50 (MCF7 breast cancer cells; clonogenic assay, single agent, read-out: IC50): 0.8 µM
SMILES: NC(=O)c1cccc2cn(-c3ccc([C@@H]4CCCNC4)cc3)nc12 [MK4827, 2-{4-[(3S)-piperidin-3-yl]phenyl}-2H-indazole-7-carboxamide, reference compound]

SMILES: O=C(O)c1cnc2c([N+](=O)[O-])cccc2c1O [C5]
effect on survival rate (MCF7 cells; DNA2 knockdown human cancer cells): did not further reduce the survival rate
survival rate compared to the untreated WT control (MCF7 cells; human cancer cells (printed MEF7)): 60%
CPT-induced P-RPA level in γH2AX-positive cells ([2]; 10 μM C5 for 24 hours, then 1 μM CPT for 4 hours): significantly reduced
γH2AX level ([2]; C5 alone, 10 μM): background increase
HR (homologous recombination) frequency ([3]; 0, 10, 20, 40, 60 μM C5, 72 h): reduced by C5 in a dose-dependent manner
SSA (single-strand annealing) frequency ([3]; 0, 10, 20, 40, 60 μM C5, 72 h): reduced by C5 in a dose-dependent manner
HR frequency compared with siRNA DNA2 knockdown ([3]; 60 μM C5): reduced to the same level as in an siRNA DNA2 knockdown
SSA frequency compared with siRNA DNA2 knockdown ([3]; 60 μM C5): reduced to the same level as in an siRNA DNA2 knockdown
inhibition of FEN1 (FEN1): not inhibited
survival of cisplatin-treated cells (FANCD2−/− fibroblasts): increase in survival
combination with MK4827, survival of MCF7 cells (MCF7 breast cancer cells; C5 0 to 10 μM, MK4827 0 to 1 μM): strong synergistic effect
combination with CPT, cellular lethality (MCF7 breast cancer cells; C5 1 μM with different concentrations of CPT): synergistic
IC50 (MCF7 breast cancer cells): 1.9 µM
combination index (MCF7 breast cancer cells; MK4827 (1 μM) and C5 (2 μM), Compusyn): 0.13
nascent DNA degradation (P-RPA positive cells) ([4]; BRCA2- or BOD1L-depleted U2OS cells, 4 mM HU 5 h, 20 μM C5): suppressed
potency in reducing nascent DNA degradation relative to mirin ([4]; BRCA2- or BOD1L-depleted U2OS cells, HU, 20 μM C5): comparable potency to 50 μM mirin
reduction in P-RPA foci ([4]; BRCA2-deficient cells, 4 mM HU 5 h): equivalent to that observed in a DNA2 knockdown
number of P-RPA positive cells ([4]; mock-depleted cells, absence of HU): neither mirin nor C5 significantly decreased
percentage of restarting forks (A549 cells; CPT-treated cells (150 nM CPT), 75% in absence of C5): 50%
percentage of restarting forks (A549 cells; HU-treated cells (2 mM HU), 80% in absence of C5): 60%
replication fork restart (A549 cells; high levels of CPT (2 μM), 10 μM C5): inhibited restart
cell killing by increasing levels of C5 ([5]; scrambled siRNA): resistant
cell killing by increasing levels of C5 ([5]; siRNA knockdown of EXO1): killed by increasing levels of C5
cell killing by increasing levels of C5 ([5]; siRNA knockdown of FEN1): killed by increasing levels of C5
cell killing by increasing levels of C5 ([5]; siRNA knockdown of MRE11): killed by increasing levels of C5
sensitisation of rad27 yeast to DNA damage [1]: synergizes with MMS and with deletion of rad27
effect on survival rate [6]: did not further reduce the survival rate
cytotoxicity to human cancer cells among the nuclease-inhibiting hits [7]: highest cytotoxicity
